From publication PMC9137552, “Structural Characterization of Two Short Unspecific Peroxygenases: Two Different Dimeric Arrangements” (Antioxidants, 2022)
Like-named read-outs stand apart in the source and are kept apart here.

Key:
[1] = test system: T1, rCviUPO; test: initial rates, absorbance at […] nm, Michaelis-Menten fit; assay type: biochemical, Collariella virescens; conditions: 1 mM H2O2; 0.1 M acetate pH 3
T1 construct: gene CviUPO; mature enzyme without signal peptide, initial Met added, no tag, codon-optimised in pET23a, E. coli BL21, non-glycosylated; homodimer, monomer 26-27 kDa; known only as recombinant enzyme; short UPO

[2] = test system: T1, rCviUPO; test: as above; assay type: biochemical, Collariella virescens; conditions: 1 mM H2O2; pH 4.0 (table note; methods text gives pH 3 or 5); read-out: C235A
[3] = test system: T2, rMroUPO; test: as above; assay type: biochemical, Marasmius rotula; conditions: 5 mM H2O2; 0.1 M acetate pH 4.6
T2 construct: gene MroUPO; mature enzyme without signal peptide, initial Met added, no tag, codon-optimised in pET23a, E. coli BL21, non-glycosylated; homodimer (C227-C227' disulfide), monomer 26-27 kDa; short UPO

[4] = test system: T1, rCviUPO; test: as above; assay type: biochemical, Collariella virescens; conditions: K228stop variant; 1 mM H2O2; pH 4.0 (table note; methods text gives pH 3 or 5)
[5] = target: recombinant unspecific peroxygenase from Marasmius rotula (rMroUPO), native (nonmutated) (Marasmius rotula); test: SEC; Superdex 75, isocratic elution with 10 mM Tris (pH 7.4), 0.15 M NaCl; masses against standards, compared with SDS-PAGE with mercaptoethanol; P201stop analysed during its last purification step
[6] = target: rCviUPO C235A variant (Collariella virescens); test: AUC + other: dynamic light scattering; sedimentation velocity, c(s) distributions (SEDFIT); diffusion coefficients from parallel DLS; molecular mass by the Svedberg equation
[7] = test system: T2, rMroUPO; test: initial rates, absorbance at […] nm, Michaelis-Menten fit; assay type: biochemical, Marasmius rotula; conditions: 5 mM H2O2; 0.1 M acetate pH 5.0
[8] = test system: T3, rCviUPO; conditions: read-out: K228stop; K228stop variant; 1 mM H2O2; 0.1 M acetate pH 4.0
T3 construct: gene CviUPO

[9] = test system: T3, rCviUPO; conditions: read-out: C235A; 1 mM H2O2; 0.1 M acetate pH 4.0
[10] = test system: T1, rCviUPO; test: initial rates, absorbance at […] nm, Michaelis-Menten fit; assay type: biochemical, Collariella virescens; conditions: K228stop variant; 1 mM H2O2; 0.1 M tartrate pH 5.0
[11] = test system: T2, rMroUPO; test: as above; assay type: biochemical, Marasmius rotula; conditions: 5 mM H2O2; 0.1 M tartrate pH 4.0
[12] = test system: T1, rCviUPO; test: as above; assay type: biochemical, Collariella virescens; conditions: 1 mM H2O2; 0.1 M tartrate pH 5.0; read-out: C235A
[13] = test system: T1, rCviUPO; test: as above; assay type: biochemical, Collariella virescens; conditions: 1 mM H2O2; 0.1 M tartrate pH 5.0
[14] = target: recombinant unspecific peroxygenase from Collariella virescens (rCviUPO), native (nonmutated) (Collariella virescens); test: AUC + other: dynamic light scattering; sedimentation velocity, c(s) distributions (SEDFIT); diffusion coefficients from parallel DLS; molecular mass by the Svedberg equation
[15] = target: recombinant unspecific peroxygenase from Collariella virescens (rCviUPO), native (nonmutated) (Collariella virescens); test: SEC; Superdex 75, isocratic elution with 10 mM Tris (pH 7.4), 0.15 M NaCl; masses against standards, compared with SDS-PAGE with mercaptoethanol; P201stop analysed during its last purification step
[16] = target: rCviUPO K228stop variant (C-terminal tail deletion) (Collariella virescens); test: AUC + other: dynamic light scattering; sedimentation velocity, c(s) distributions (SEDFIT); diffusion coefficients from parallel DLS; molecular mass by the Svedberg equation

Compound: COc1ccc(CO)cc1OC [Veratryl alcohol]
- Km [1]: 2940 ± 160 µM
- Km [2]: 7240 ± 820 µM
- Km [3]: 54.2 ± 16.7 µM
- Km [4]: 55300 µM

Compound: recombinant unspecific peroxygenase from Marasmius rotula (rMroUPO), native (nonmutated) (enzyme)
- stoichiometry N [5]: 2

Compound: rCviUPO C235A variant (enzyme)
- stoichiometry N [6]: 2

Compound: CCn1c(=NN=c2sc3cc(S(=O)(=O)O)ccc3n2CC)sc2cc(S(=O)(=O)O)ccc21 [ABTS, 2,2′-azino-bis(3-ethylbenzothiazoline-6-sulfonic acid)]
- Km [7]: 246 ± 3 µM
- Km [8]: 110 ± 15 µM
- Km [9]: 87 ± 7 µM

Compound: COc1cccc(OC)c1O [DMP, 2,6-dimethoxyphenol]
- Km [10]: 3720 ± 250 µM
- Km [11]: 206 ± 38 µM
- Km [12]: 4500 ± 424 µM
- Km [13]: 4930 ± 470 µM

Compound: recombinant unspecific peroxygenase from Collariella virescens (rCviUPO), native (nonmutated) (enzyme)
- stoichiometry N [14]: 2
- stoichiometry N [15]: 2

Compound: rCviUPO K228stop variant (C-terminal tail deletion) (domain or fragment)
- stoichiometry N [16]: 2
